In the supplement of paper PMC8149375:

What was measured:
Details in all cases: treatment: drug + dasatinib (fixed dose, not stated); 5 days
TK-10 [1] = test: AUC of dose-response viability curve, drug + dasatinib, normalised to DMSO (arbitrary (AUC of normalised viability)); higher = less growth inhibition
Experimental: (§1)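 Primary HTS combination arm: 8 RCC cell lines treated with 8 doses (up to 10 uM) of each library drug plus a fixed dose of dasatinib (dose not stated) for 5 days; viability read by CellTiter-Glo and normalised to DMSO. GI50 was fitted with XLfit, AUC is the area under the dose-response curve, and minimum viability is the lowest fraction of DMSO viability across doses.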

769-P [2] = test: as above
Experimental: as §1

ACHN [3] = test: as above
Experimental: as §1

CAKI-1 [4] = test: as above
Experimental: as §1

786-O [5] = test: as above
Experimental: as §1

UO-31 [6] = test: as above
Experimental: as §1

A498 [7] = test: as above
Experimental: as §1

SN12C [8] = test: as above
Experimental: as §1

TK-10 [9] = test: GI50 of drug in presence of dasatinib; higher = less potent
Experimental: as §1

769-P [10] = test: as above
Experimental: as §1

ACHN [11] = test: as above
Experimental: as §1

CAKI-1 [12] = test: as above
Experimental: as §1

786-O [13] = test: as above
Experimental: as §1

UO-31 [14] = test: as above
Experimental: as §1

A498 [15] = test: as above
Experimental: as §1

SN12C [16] = test: as above
Experimental: as §1

TK-10 [17] = test: minimum viability across doses, drug + dasatinib, relative to DMSO (fraction); higher = less growth inhibition
Experimental: as §1

769-P [18] = test: as above
Experimental: as §1

ACHN [19] = test: as above
Experimental: as §1

CAKI-1 [20] = test: as above
Experimental: as §1

786-O [21] = test: as above
Experimental: as §1

UO-31 [22] = test: as above
Experimental: as §1

A498 [23] = test: as above
Experimental: as §1

SN12C [24] = test: as above
Experimental: as §1

Row | SMILES | AUC of dose-response viability curve (TK-10 [1]) | AUC of dose-response viability curve (769-P [2]) | AUC of dose-response viability curve (ACHN [3]) | AUC of dose-response viability curve (CAKI-1 [4]) | AUC of dose-response viability curve (786-O [5]) | AUC of dose-response viability curve (UO-31 [6]) | AUC of dose-response viability curve (A498 [7]) | AUC of dose-response viability curve (SN12C [8]) | GI50 of drug (TK-10 [9]) | GI50 of drug (769-P [10]) | GI50 of drug (ACHN [11]) | GI50 of drug (CAKI-1 [12]) | GI50 of drug (786-O [13]) | GI50 of drug (UO-31 [14]) | GI50 of drug (A498 [15]) | GI50 of drug (SN12C [16]) | minimum viability across doses (TK-10 [17]) | minimum viability across doses (769-P [18]) | minimum viability across doses (ACHN [19]) | minimum viability across doses (CAKI-1 [20]) | minimum viability across doses (786-O [21]) | minimum viability across doses (UO-31 [22]) | minimum viability across doses (A498 [23]) | minimum viability across doses (SN12C [24])
1 | COC(=O)Nc1ccc(-c2nc(N3CCOCC3)c3cnn(C4CCN(C(=O)OC)CC4)c3n2)cc1 [WYE-354] + Cc1nc(Nc2ncc(C(=O)Nc3c(C)cccc3Cl)s2)cc(N2CCN(CCO)CC2)n1 [dasatinib] | 1.83 | 1.84 | 1.33 | 1.71 | 1.76 | 2.63 | 2.63 | 2.08 | 329 nM | 457 nM | 74.7 nM | 345 nM | 381 nM | 894 nM | 1980 nM | 800 nM | 0.208 | 0.122 | 0.0892 | 0.0632 | 0.307 | 0.019 | 0.262 | 0.215
2 | Cc1cccc(-c2nc(C(C)(C)C)[nH]c2-c2ccc3nccnc3c2)n1 + Cc1nc(Nc2ncc(C(=O)Nc3c(C)cccc3Cl)s2)cc(N2CCN(CCO)CC2)n1 [dasatinib] | 2.51 | 2.34 | 2.06 | 2.29 | 2.16 | 4.8 | 3.7 | 2.18 | > 10000 nM | 7810 nM | > 10000 nM | 7370 nM | > 10000 nM | > 10000 nM | 8410 nM | 3770 nM | 0.61 | 0.476 | 0.559 | 0.486 | 0.517 | 0.824 | 0.411 | 0.317
3 | CC[C@@H]1C(=O)N(C)c2cnc(Nc3ccc(C(=O)NC4CCN(C)CC4)cc3OC)nc2N1C1CCCC1 [BI 2536] + Cc1nc(Nc2ncc(C(=O)Nc3c(C)cccc3Cl)s2)cc(N2CCN(CCO)CC2)n1 [dasatinib] | 1.68 | 1.28 | 0.778 | 0.981 | 0.643 | 1.3 | 1.51 | 1.24 | 405 nM | 56.8 nM | 4.47 nM | 7.85 nM | 8.79 nM | 61.4 nM | 38.4 nM | 32.1 nM | 0.0551 | 0.0343 | 0.0392 | 0.0866 | 0.0183 | 0.0114 | 0.0692 | 0.052
4 | O=C(NOCC(O)CO)c1cc(Br)c(F)c(F)c1Nc1ccc(I)cc1F (stereo unspecified) + Cc1nc(Nc2ncc(C(=O)Nc3c(C)cccc3Cl)s2)cc(N2CCN(CCO)CC2)n1 [dasatinib] | 2.23 | 2.06 | 1.45 | 1.91 | 1.75 | 2.59 | 2.39 | 2.1 | 2540 nM | 800 nM | 26.5 nM | 680 nM | 149 nM | 1690 nM | 1560 nM | 1220 nM | 0.404 | 0.278 | 0.279 | 0.133 | 0.327 | 0.164 | 0.344 | 0.357
5 | Cc1ccc([N+](=O)[O-])cc1S(=O)(=O)N(C)/N=C/c1cnc2ccc(Br)cn12.Cl [PIK-75] + Cc1nc(Nc2ncc(C(=O)Nc3c(C)cccc3Cl)s2)cc(N2CCN(CCO)CC2)n1 [dasatinib] | 1.4 | 1.11 | 0.571 | 0.683 | 0.918 | 1.22 | 1.29 | 1.07 | 45.1 nM | 47.6 nM | 7.83 nM | 7.8 nM | 30.3 nM | 43 nM | 65.6 nM | 57.7 nM | 0.124 | 0.00622 | 0.00364 | 0.0337 | 0.00381 | 0.00696 | 0.00818 | 0.00539
6 | Cc1cc2c(F)c(Oc3ncnn4cc(OC[C@@H](C)OC(=O)[C@H](C)N)c(C)c34)ccc2[nH]1 + Cc1nc(Nc2ncc(C(=O)Nc3c(C)cccc3Cl)s2)cc(N2CCN(CCO)CC2)n1 [dasatinib] | 2.69 | 2.41 | 1.89 | 2.59 | 2.48 | 3.27 | 3.16 | 2.47 | > 10000 nM | > 10000 nM | 1050 nM | 7600 nM | > 10000 nM | 9860 nM | > 10000 nM | > 10000 nM | 0.674 | 0.617 | 0.316 | 0.431 | 0.504 | 0.457 | 0.733 | 0.605
7 | O=C(NCCCNc1nc(Nc2cccc(NC(=O)N3CCCC3)c2)ncc1I)c1cccs1 [BX-795] + Cc1nc(Nc2ncc(C(=O)Nc3c(C)cccc3Cl)s2)cc(N2CCN(CCO)CC2)n1 [dasatinib] | 2.09 | 2.08 | 1.74 | 1.77 | 1.72 | 3.15 | 3.06 | 2.44 | 1780 nM | 1590 nM | 411 nM | 457 nM | 695 nM | 3020 nM | > 10000 nM | 4410 nM | 0.0986 | 0.0706 | 0.155 | 0.0814 | 0.00318 | 0.015 | 0.74 | 0.334
8 | S=C(NCc1ccc2c(c1)OCO2)N1CCN(c2ncnc3c2oc2ccccc23)CC1 [Amuvatinib (MP-470)_R2] + Cc1nc(Nc2ncc(C(=O)Nc3c(C)cccc3Cl)s2)cc(N2CCN(CCO)CC2)n1 [dasatinib] | 2.24 | 2.38 | 1.85 | 2.48 | 1.87 | 3.36 | 2.86 | 2.06 | 2640 nM | 2550 nM | 1230 nM | > 10000 nM | 1240 nM | 2840 nM | 3370 nM | 1630 nM | 0.26 | 0.219 | 0.17 | 0.583 | 0.0149 | 0.0367 | 0.251 | 0.0319
9 | CS(=O)(=O)N1CCN(Cc2cc3nc(-c4cccc5[nH]ncc45)nc(N4CCOCC4)c3s2)CC1 [GDC-0941] + Cc1nc(Nc2ncc(C(=O)Nc3c(C)cccc3Cl)s2)cc(N2CCN(CCO)CC2)n1 [dasatinib] | 1.93 | 1.73 | 1.55 | 1.48 | 1.81 | 1.71 | 2.56 | 1.96 | 302 nM | 234 nM | 82.6 nM | 111 nM | 225 nM | 172 nM | 3090 nM | 386 nM | 0.171 | 0.111 | 0.163 | 0.0678 | 0.00743 | 0.0152 | 0.319 | 0.235
10 | CCN(CC)CCCCNc1ncc2cc(-c3cc(OC)cc(OC)c3)c(NC(=O)NC(C)(C)C)nc2n1 + Cc1nc(Nc2ncc(C(=O)Nc3c(C)cccc3Cl)s2)cc(N2CCN(CCO)CC2)n1 [dasatinib] | 2.18 | 2.13 | 1.28 | 1.31 | 2.02 | 2.28 | 2.67 | 1.9 | 1390 nM | 1820 nM | 19.8 nM | 80.1 nM | 1210 nM | 696 nM | 3570 nM | 366 nM | 0.258 | 0.207 | 0.042 | 0.0229 | 0.00578 | 0.0119 | 0.139 | 0.0905
11 | CNC(=O)c1cc(COc2nnc(Nc3ccc(Cl)cc3)c3ccoc23)ccn1 [Telatinib (BAY 57-9352)] + Cc1nc(Nc2ncc(C(=O)Nc3c(C)cccc3Cl)s2)cc(N2CCN(CCO)CC2)n1 [dasatinib] | 2.45 | 2.25 | 2.22 | 2.19 | 2.23 | 4 | 3.74 | 2.51 | 4840 nM | 5530 nM | 7500 nM | 3470 nM | 4000 nM | > 10000 nM | > 10000 nM | > 10000 nM | 0.334 | 0.355 | 0.474 | 0.188 | 0.0325 | 0.989 | 0.784 | 0.673
12 | CC(C)c1cnn2c(NCc3ccccc3)cc(NCCCCCCN)nc12.Cl [BS-181 HCl] + Cc1nc(Nc2ncc(C(=O)Nc3c(C)cccc3Cl)s2)cc(N2CCN(CCO)CC2)n1 [dasatinib] | 2.63 | 2.55 | 1.94 | 2.34 | 2.72 | 4.39 | 3.45 | 2.46 | > 10000 nM | > 10000 nM | 2870 nM | > 10000 nM | 7190 nM | > 10000 nM | > 10000 nM | > 10000 nM | 0.657 | 0.672 | 0.344 | 0.6 | 0.438 | 1.11 | 0.942 | 0.67
13 | Clc1ccc(C2(c3ccc(-c4cn[nH]c4)cc3)CCNCC2)cc1 [AT7867] + Cc1nc(Nc2ncc(C(=O)Nc3c(C)cccc3Cl)s2)cc(N2CCN(CCO)CC2)n1 [dasatinib] | 2.49 | 2.16 | 1.69 | 1.96 | 1.85 | 2.34 | 3.22 | 2.43 | 1970 nM | 1690 nM | 530 nM | 762 nM | 577 nM | 348 nM | 8310 nM | 3460 nM | 0.0469 | 0.124 | 0.0726 | 0.094 | 0.00775 | 0.00689 | 0.135 | 0.192
14 | CCC[C@H](NC(=O)/C(C#N)=C/c1cccc(Br)n1)c1ccccc1 [WP1130] + Cc1nc(Nc2ncc(C(=O)Nc3c(C)cccc3Cl)s2)cc(N2CCN(CCO)CC2)n1 [dasatinib] | 2.43 | 2.25 | 1.95 | 2.12 | 1.79 | 3.53 | 2.69 | 2.37 | 4750 nM | 3100 nM | 4370 nM | 2190 nM | 279 nM | 4240 nM | 4100 nM | 3930 nM | 0.191 | 0.0169 | 0.00233 | 0.0305 | 0.00681 | 0.0123 | 0.02 | 0.00838
